# Experimental data from patent US7754727B2, “4-phenylpiperidine derivatives as renin inhibitors” (Novartis AG, priority 2003, dated 2010).
# Structures can show the parent of a compound that is named as a salt.
# Molecular target: T1, Recombinant human renin (Homo sapiens, UniProt P00797)
# T1 construct: made in house; host or cells: Chinese Hamster Ovary cells
# T1 sequence (P00797 67-406): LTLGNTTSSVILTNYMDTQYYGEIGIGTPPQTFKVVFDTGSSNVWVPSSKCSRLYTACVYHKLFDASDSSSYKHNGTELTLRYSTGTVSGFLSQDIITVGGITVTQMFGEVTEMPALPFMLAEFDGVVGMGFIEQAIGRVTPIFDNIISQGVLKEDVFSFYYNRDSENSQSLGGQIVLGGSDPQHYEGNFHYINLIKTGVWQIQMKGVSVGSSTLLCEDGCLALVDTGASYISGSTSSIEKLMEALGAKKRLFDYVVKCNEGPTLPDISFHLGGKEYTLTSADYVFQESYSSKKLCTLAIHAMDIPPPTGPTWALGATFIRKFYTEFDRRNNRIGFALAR
# Assay: FRET assay of inhibition of renin activity
# Assay type: biochemical
# Settings: recombinant human renin 4 nM, 1 h at RT, pH 7.4
# Procedure: Recombinant human renin (expressed in Chinese Hamster Ovary cells and purified using standard methods) at 4 nM concentration is incubated with test compound at various concentrations for 1 h at RT in 0.1 M Tris-HCl buffer, pH 7.4, containing 0.05 M NaCl, 0.5 mM EDTA and 0.05% CHAPS. Synthetic peptide substrate Arg-Glu(EDANS)-Ile-His-Pro-Phe-His-Leu-Val-Ile_His_Thr-Lys(DABCYL)-Arg9 is added to a final concentration of 2 μM and increase in fluorescence is recorded at an excitation wave-length of 340 nm and at an emission wave-length of 485 nm in a microplate spectro-fluorimeter. IC50 values are calculated from percentage of inhibition of renin activity as a function of test compound concentration (Fluorescence Resonance Energy Transfer, FRET, assay).
smiles,measurement,value
"c1ccc(-c2cccc([C@H]3CCNC[C@@H]3OCc3ccc4ccccc4c3)c2)cc1 (relative stereo) [Example 1, (3R*,4R*)-4-Biphenyl-3-yl-3-(naphthalen-2-ylmethoxy)-piperidine hydrochloride]",IC50,~70 nM
